# Measurements: ChEMBL document CHEMBL1909046, “DrugMatrix in vitro pharmacology data”
# Legend:
# [1] = target: T1, Alpha-1D adrenergic receptor (Homo sapiens, UniProt P25100); format: cell membranes, HEK293, Membrane; conditions: hek293
# T1 sequence (P25100 whole entry): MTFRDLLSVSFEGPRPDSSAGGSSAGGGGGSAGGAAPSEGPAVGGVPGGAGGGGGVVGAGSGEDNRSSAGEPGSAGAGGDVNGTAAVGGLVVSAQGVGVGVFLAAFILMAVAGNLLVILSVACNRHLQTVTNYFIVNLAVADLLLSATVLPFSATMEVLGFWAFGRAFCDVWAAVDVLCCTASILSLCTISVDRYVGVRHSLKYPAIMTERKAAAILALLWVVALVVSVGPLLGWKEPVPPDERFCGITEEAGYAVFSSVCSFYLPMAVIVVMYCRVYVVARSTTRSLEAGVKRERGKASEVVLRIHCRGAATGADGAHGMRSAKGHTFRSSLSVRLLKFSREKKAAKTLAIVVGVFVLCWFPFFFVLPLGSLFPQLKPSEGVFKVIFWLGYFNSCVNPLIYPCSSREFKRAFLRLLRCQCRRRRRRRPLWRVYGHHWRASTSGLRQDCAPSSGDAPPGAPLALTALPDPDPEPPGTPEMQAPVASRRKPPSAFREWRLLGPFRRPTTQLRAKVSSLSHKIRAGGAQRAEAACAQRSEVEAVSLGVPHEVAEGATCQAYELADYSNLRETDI
# [2] = target: T2, Alpha-2A adrenergic receptor (Homo sapiens, UniProt P08913); format: cell membranes, Sf9, Membrane; conditions: for Ki: read-out: Ki
# T2 sequence (P08913 whole entry): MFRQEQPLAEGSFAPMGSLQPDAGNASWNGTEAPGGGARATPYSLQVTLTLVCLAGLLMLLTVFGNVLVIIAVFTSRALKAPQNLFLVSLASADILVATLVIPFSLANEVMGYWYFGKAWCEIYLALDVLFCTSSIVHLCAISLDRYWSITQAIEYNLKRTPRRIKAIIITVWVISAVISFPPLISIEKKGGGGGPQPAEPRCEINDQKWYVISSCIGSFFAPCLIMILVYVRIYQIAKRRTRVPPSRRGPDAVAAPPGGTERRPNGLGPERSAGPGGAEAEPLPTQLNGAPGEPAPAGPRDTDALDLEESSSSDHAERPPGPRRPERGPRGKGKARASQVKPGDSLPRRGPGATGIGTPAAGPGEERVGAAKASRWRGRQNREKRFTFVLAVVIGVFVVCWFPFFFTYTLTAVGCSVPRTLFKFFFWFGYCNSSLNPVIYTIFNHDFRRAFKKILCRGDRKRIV
# [3] = target: Receptor tyrosine-protein kinase erbB-2 (Homo sapiens, UniProt P04626); experiment: biochemical; format: cell-based, Insect cells;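 further: inhibition of HER2 kinase enzyme activity, measured with Poly(Glu:Tyr) as the phosphorylation substrate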
# Chain of Receptor tyrosine-protein kinase erbB-2 (P04626 whole entry): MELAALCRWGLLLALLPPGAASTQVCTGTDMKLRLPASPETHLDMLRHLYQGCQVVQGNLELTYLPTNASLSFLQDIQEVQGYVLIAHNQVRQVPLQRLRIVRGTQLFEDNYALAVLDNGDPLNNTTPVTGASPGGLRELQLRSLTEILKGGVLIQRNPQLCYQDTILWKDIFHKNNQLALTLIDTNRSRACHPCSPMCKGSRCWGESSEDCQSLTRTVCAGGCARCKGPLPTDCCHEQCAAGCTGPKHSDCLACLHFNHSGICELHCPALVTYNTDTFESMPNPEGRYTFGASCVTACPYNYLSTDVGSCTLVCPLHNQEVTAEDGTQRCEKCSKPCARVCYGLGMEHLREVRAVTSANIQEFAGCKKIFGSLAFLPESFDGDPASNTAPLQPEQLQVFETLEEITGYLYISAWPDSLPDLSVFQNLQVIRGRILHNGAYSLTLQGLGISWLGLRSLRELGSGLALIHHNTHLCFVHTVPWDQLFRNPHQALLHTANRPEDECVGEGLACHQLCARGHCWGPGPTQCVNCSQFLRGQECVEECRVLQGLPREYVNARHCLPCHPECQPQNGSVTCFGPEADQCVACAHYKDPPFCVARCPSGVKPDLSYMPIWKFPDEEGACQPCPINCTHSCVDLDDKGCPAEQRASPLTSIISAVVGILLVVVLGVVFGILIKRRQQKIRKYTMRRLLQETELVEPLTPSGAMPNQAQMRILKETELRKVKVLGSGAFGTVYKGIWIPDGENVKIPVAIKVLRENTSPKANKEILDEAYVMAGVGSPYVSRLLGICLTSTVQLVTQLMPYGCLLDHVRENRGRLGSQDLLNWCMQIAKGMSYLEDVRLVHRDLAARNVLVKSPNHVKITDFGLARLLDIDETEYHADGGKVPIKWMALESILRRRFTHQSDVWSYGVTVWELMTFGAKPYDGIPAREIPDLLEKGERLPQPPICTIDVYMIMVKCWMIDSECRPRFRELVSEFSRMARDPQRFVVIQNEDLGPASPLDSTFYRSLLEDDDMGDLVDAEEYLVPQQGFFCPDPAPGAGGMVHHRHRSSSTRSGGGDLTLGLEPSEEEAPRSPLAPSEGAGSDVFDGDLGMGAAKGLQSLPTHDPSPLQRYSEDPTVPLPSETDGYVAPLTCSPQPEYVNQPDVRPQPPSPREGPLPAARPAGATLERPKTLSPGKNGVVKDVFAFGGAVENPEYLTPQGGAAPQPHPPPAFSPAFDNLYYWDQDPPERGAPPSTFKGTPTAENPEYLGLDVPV
# Androgen receptor = target: T3, Androgen receptor (Rattus norvegicus, UniProt P15207)
# T3 sequence (P15207 whole entry): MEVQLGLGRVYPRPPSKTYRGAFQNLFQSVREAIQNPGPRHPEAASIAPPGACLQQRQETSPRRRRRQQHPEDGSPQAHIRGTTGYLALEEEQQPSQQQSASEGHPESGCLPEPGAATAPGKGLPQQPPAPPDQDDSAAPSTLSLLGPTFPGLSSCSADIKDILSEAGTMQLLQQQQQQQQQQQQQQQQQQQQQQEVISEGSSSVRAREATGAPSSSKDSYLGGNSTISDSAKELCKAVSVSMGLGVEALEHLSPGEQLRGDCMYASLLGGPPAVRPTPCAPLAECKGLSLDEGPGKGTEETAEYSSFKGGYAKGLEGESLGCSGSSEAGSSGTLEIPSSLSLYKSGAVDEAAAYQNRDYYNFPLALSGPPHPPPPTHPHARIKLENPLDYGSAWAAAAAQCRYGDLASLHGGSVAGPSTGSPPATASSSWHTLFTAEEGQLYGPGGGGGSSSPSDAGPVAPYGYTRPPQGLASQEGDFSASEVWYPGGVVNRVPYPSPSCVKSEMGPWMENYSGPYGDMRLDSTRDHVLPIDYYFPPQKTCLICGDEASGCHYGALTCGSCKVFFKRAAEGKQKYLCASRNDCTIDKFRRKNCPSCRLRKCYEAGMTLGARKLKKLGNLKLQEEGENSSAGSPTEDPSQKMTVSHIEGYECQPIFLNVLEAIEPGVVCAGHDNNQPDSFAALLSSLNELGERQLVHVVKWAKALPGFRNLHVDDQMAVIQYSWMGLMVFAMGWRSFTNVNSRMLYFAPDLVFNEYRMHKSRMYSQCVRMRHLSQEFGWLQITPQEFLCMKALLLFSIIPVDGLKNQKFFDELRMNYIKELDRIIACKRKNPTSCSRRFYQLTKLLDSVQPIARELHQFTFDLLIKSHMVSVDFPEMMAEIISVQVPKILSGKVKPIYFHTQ
# Cytochrome P450 2D6 = Cytochrome P450 2D6 (Homo sapiens, UniProt P10635); conditions: bti-tn-5b1-4
# Chain of Cytochrome P450 2D6 (P10635 whole entry): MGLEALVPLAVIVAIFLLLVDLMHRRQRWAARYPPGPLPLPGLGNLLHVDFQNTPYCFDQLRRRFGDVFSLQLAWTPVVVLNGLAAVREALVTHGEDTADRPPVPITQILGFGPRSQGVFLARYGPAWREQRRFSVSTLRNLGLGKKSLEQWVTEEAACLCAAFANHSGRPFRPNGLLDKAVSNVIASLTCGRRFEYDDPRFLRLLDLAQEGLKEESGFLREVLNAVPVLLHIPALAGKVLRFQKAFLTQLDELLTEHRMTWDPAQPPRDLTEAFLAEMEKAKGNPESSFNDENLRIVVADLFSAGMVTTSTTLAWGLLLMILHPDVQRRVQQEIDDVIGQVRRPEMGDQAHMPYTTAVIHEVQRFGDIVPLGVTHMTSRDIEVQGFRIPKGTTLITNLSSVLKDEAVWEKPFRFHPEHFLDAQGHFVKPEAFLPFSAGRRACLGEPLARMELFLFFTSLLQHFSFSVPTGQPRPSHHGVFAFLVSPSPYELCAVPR
# Further: in other assays of this panel Not Active means under 50% inhibition at 10 µM.
SMILES,IC50 [1],IC50 ([2]; sf9),IC50 ([3]; insect cells),IC50 (Androgen receptor),IC50 (Cytochrome P450 2D6),Ki (Cytochrome P450 2D6),IC50 ([2]; read-out: IC50) [nM],Ki [2] [nM],IC50 ([3]; read-out: IC50) [nM]
O=C(c1ccccc1C(F)(F)F)N1CCC(Cc2ccccc2)CC1,Not Active,Not Active,Not Active,Not Active,Not Active,Not Active,–,–,–
Nc1ccc2c3c(cccc13)C(=O)NC2=O,Not Active,Not Active,Not Active,Not Active,Not Active,Not Active,–,–,–
O=c1cnn([C@@H]2O[C@H](CO)[C@@H](O)[C@H]2O)c(=O)[nH]1 [6-AZAURIDINE],Not Active,Not Active,Not Active,Not Active,Not Active,Not Active,–,–,–
CCC1(CCC(C)C)C(=O)NC(=O)NC1=O [AMOBARBITAL],Not Active,Not Active,Not Active,Not Active,Not Active,Not Active,–,–,–
CC(C(=O)O)c1ccc2oc(-c3ccc(Cl)cc3)nc2c1 (centres undefined) [BENOXAPROFEN],Not Active,Not Active,Not Active,Not Active,Not Active,Not Active,–,–,–
CC(=O)Oc1ccc(C(c2ccc(OC(C)=O)cc2)c2ccccn2)cc1 [BISACODYL],Not Active,Not Active,Not Active,Not Active,Not Active,Not Active,–,–,–
CN(C)[C@@H]1C(O)=C(C(N)=O)C(=O)[C@@]2(O)C(O)=C3C(=O)c4c(O)ccc(Cl)c4[C@@](C)(O)[C@H]3C[C@@H]12 [CHLORTETRACYCLINE],Not Active,Not Active,Not Active,Not Active,Not Active,Not Active,–,–,–
O=C1CN=C(c2ccccc2Cl)c2cc([N+](=O)[O-])ccc2N1 [CLONAZEPAM],Not Active,Not Active,Not Active,Not Active,Not Active,Not Active,–,–,–
C[C@@H]1CC[C@@]2(OC1)O[C@H]1[C@@H](O)[C@H]3[C@@H]4CC[C@H]5C[C@@H](O[C@@H]6O[C@H](CO)[C@H](O[C@@H]7O[C@H](CO)C(O)[C@H](O[C@@H]8OC[C@@H](O)[C@H](O)[C@H]8O)[C@H]7O[C@@H]7O[C@H](CO)[C@H](O)[C@H](O[C@@H]8O[C@H](CO)[C@@H](O)[C@H](O)[C@H]8O)[C@H]7O)[C@H](O)[C@H]6O)[C@H](O)C[C@]5(C)[C@H]4CC[C@]3(C)[C@H]1[C@@H]2C (some centres undefined) [DIGITONIN],Not Active,Not Active,Not Active,Not Active,Not Active,Not Active,–,–,–
OC(CCCN1CCCCC1)(c1ccccc1)c1ccccc1 [DIPHENIDOL],Not Active,Not Active,Not Active,Not Active,–,–,–,–,–
C[C@@H](CO)NC(=O)[C@@H]1C=C2c3cccc4[nH]cc(c34)C[C@H]2N(C)C1 [ERGONOVINE],Not Active,–,Not Active,Not Active,Not Active,Not Active,1680,630,–
COc1ccc2c3c1O[C@H]1C[C@@H](O)C=C[C@@]31CCN(C)C2 [GALANTAMINE],Not Active,Not Active,Not Active,Not Active,–,–,–,–,–
CC(C)=CCC/C(C)=C/CO [GERANIOL],Not Active,Not Active,Not Active,Not Active,–,–,–,–,–
Oc1c(Cl)cc(Cl)c(Cl)c1Cc1c(O)c(Cl)cc(Cl)c1Cl [HEXACHLOROPHENE],Not Active,–,–,–,Not Active,Not Active,5500,2060,3320
NNc1nncc2ccccc12 [HYDRALAZINE],Not Active,Not Active,Not Active,–,Not Active,Not Active,–,–,–
